Results: ChEMBL document CHEMBL1799925, “Inhibition of sphingosine 1-phosphate lyase for the treatment of rheumatoid arthritis: discovery of (E)-1-(4-((1R,2S,3R)-1,2,3,4-tetrahydroxybutyl)-1H-imidazol-2-yl)ethanone oxime (LX2931) and (1R,2S,3R)-1-(2-(isoxazol-3-yl)-1H-imidazol-4-yl)butane-1,2,3,4-tetraol (LX2932)” (J Med Chem, 2010)
The source made the active and inactive calls. No cut-off for these calls is given here.

Assays:
[1] = Tmax in Beagle dog at 50 mg/kg, po by LC/MS/MS analysis; format: ADME, organism-based, Canis lupus familiaris; parameters: dose 50 mg/kg, route oral; details: in vivo
[2] = test system: Homo sapiens; test: Immunomodulatory activity in arthritic patient assessed as decrease in peripheral lymphocytes at […], po administered as single dose after 48 hrs; format: functional; parameters: scale not given: the % may be the effect or the level left
[3] = test system: Canis familiaris; test: Volume of distribution at steady state in Beagle dog at 50 mg/kg, po by LC/MS/MS analysis; format: ADME, organism-based, Canis lupus familiaris; parameters: dose 50 mg/kg, route oral; details: in vivo
[4] = test system: Mus musculus; test: Immunomodulatory activity in 129/SvEvBrd X C57BL/6 F1 mouse assessed as decrease in peripheral blood lymphocyte count at 30 mg/kg, po measured after 18 hrs by complete blood count analysis relative to control; format: ADME, organism-based; parameters: dose 30 mg/kg, route oral; scale not given: the % may be the effect or the level left; details: in vivo
[5] = (§1) Bioavailability in 129/SvEvBrd X C57BL/6 F1 mouse determined from 1 mg/kg, iv and 10 mg/kg, po by LC/MS/MS analysis; format: ADME, organism-based; details: 129/SvEvBrd X C57BL/6 F1, mouse, in vivo
[6] = AUC (0 to infinity) in Beagle dog at 50 mg/kg, po by LC/MS/MS analysis; format: ADME, organism-based, Canis lupus familiaris; parameters: dose 50 mg/kg, route oral, time infinity; details: plasma
[7] = test system: Rattus norvegicus; test: Volume of distribution at steady state in Sprague-Dawley rat at 10 mg/kg, po by LC/MS/MS analysis; format: ADME, organism-based; parameters: dose 10 mg/kg, route oral; details: in vivo
[8] = Tmax in healthy human at 1 mg/kg, po by LC/MS/MS analysis; format: ADME, organism-based; parameters: dose 1 mg/kg, route oral; details: in vivo
[9] = Cmax in 129/SvEvBrd X C57BL/6 F1 mouse at 10 mg/kg, po by LC/MS/MS analysis; format: ADME, organism-based; parameters: dose 10 mg/kg, route oral; details: in vivo
[10] = Tmax in cynomolgus monkey at 30 mg/kg, po by LC/MS/MS analysis; format: ADME, organism-based, Macaca fascicularis; parameters: dose 30 mg/kg, route oral; details: in vivo
[11] = AUC (0 to infinity) in cynomolgus monkey at 30 mg/kg, po by LC/MS/MS analysis; format: ADME, organism-based, Macaca fascicularis; parameters: dose 30 mg/kg, route oral, time infinity; details: plasma
[12] = Cmax in Beagle dog at 50 mg/kg, po by LC/MS/MS analysis; format: ADME, organism-based, Canis lupus familiaris; parameters: dose 50 mg/kg, route oral; details: in vivo
[13] = Oral bioavailability in Sprague-Dawley rat determined from 1 mg/kg, iv and 10 mg/kg, po by LC/MS/MS analysis; format: ADME, organism-based; details: in vivo
[14] = Tmax in 129/SvEvBrd X C57BL/6 F1 mouse at 10 mg/kg, po by LC/MS/MS analysis; format: ADME, organism-based; parameters: dose 10 mg/kg, route oral; details: in vivo
[15] = (§2) AUC (0 to infinity) in 129/SvEvBrd X C57BL/6 F1 mouse at 10 mg/kg, po by LC/MS/MS analysis; format: ADME, organism-based, Plasma; parameters: time infinity, dose 10 mg/kg, route oral; details: 129/SvEvBrd X C57BL/6 F1, mouse, plasma
[16] = test system: Mus musculus; test: Immunomodulatory activity in mouse assessed as induction of lymphopenia at 30 to 100 mg/kg, po administered as single dose measured after 18 hrs; format: functional; details: dose mg/kg 30-100
[17] = AUC (0 to infinity) in healthy human at 1 mg/kg, po by LC/MS/MS analysis; format: ADME, organism-based; parameters: time infinity, dose 1 mg/kg, route oral; details: plasma
[18] = test system: Rattus norvegicus; test: Increase in S1P level in Sprague-Dawley rat spleen at 30 mg/kg, po administered daily for 3 days measured after 18 hrs […] relative to untreated control; format: functional
[19] = Bioavailability in Beagle dog determined from 1 mg/kg, iv and 50 mg/kg, po by LC/MS/MS analysis; format: ADME, organism-based, Canis lupus familiaris; details: in vivo
[20] = test system: Cynomolgus monkey; test: Volume of distribution at steady state in cynomolgus monkey at 30 mg/kg, po by LC/MS/MS analysis; format: ADME, organism-based, Macaca fascicularis; parameters: dose 30 mg/kg, route oral; details: in vivo
[21] = AUC (0 to infinity) in Sprague-Dawley rat at 10 mg/kg, po by LC/MS/MS analysis; format: ADME, organism-based; parameters: time infinity, dose 10 mg/kg, route oral; details: plasma
[22] = Clearance in Beagle dog at 1 mg/kg, iv by LC/MS/MS analysis; format: ADME, organism-based, Canis lupus familiaris; parameters: dose 1 mg/kg, route intravenous; details: in vivo
[23] = Tmax in Sprague-Dawley rat at 10 mg/kg, po by LC/MS/MS analysis; format: ADME, organism-based; parameters: dose 10 mg/kg, route oral; details: in vivo
[24] = Clearance in Sprague-Dawley rat at 1 mg/kg, iv by LC/MS/MS analysis; format: ADME, organism-based; parameters: dose 1 mg/kg, route intravenous; details: in vivo
[25] = Cmax in healthy human at 1 mg/kg, po by LC/MS/MS analysis; format: ADME, organism-based; parameters: dose 1 mg/kg, route oral; details: in vivo
[26] = test system: Cynomolgus monkey; test: Cardiotoxicity in cynomolgus monkey assessed as increase in heart rate at 1000 mg/kg, po administered as single dose after 24 hrs by electrocardiogram analysis; format: toxicity, organism-based, Macaca fascicularis; parameters: dose 1000 mg/kg, route oral; details: in vivo
[27] = Clearance in 129/SvEvBrd X C57BL/6 F1 mouse at 1 mg/kg, iv by LC/MS/MS analysis; format: ADME, organism-based; parameters: dose 1 mg/kg, route intravenous; details: in vivo
[28] = Clearance in cynomolgus monkey at 1 mg/kg, iv by LC/MS/MS analysis; format: ADME, organism-based, Macaca fascicularis; parameters: dose 1 mg/kg, route intravenous; details: in vivo
[29] = Cmax in Sprague-Dawley rat at 10 mg/kg, po by LC/MS/MS analysis; format: ADME, organism-based; parameters: dose 10 mg/kg, route oral; details: in vivo
[30] = test system: Homo sapiens; test: Toxicity in arthritic patient assessed as tolerability at […], po administered as single dose; format: organism-based; parameters: route oral; details: in vivo
[31] = Cmax in cynomolgus monkey at 30 mg/kg, po by LC/MS/MS analysis; format: ADME, organism-based, Macaca fascicularis; parameters: dose 30 mg/kg, route oral; details: in vivo
[32] = Volume of distribution at steady state in 129/SvEvBrd X C57BL/6 F1 mouse at 1 mg/kg, iv by LC/MS/MS analysis; format: ADME, organism-based; parameters: dose 1 mg/kg, route intravenous; details: in vivo, read-out: Vdss
[33] = test system: Rattus norvegicus; test: Increase in S1P level in Sprague-Dawley rat thymus at 30 mg/kg, po administered daily for 3 days measured after 18 hrs […] relative to untreated control; format: functional
[34] = Half life in 129/SvEvBrd X C57BL/6 F1 mouse at 10 mg/kg, po by LC/MS/MS analysis; format: ADME, organism-based; parameters: dose 10 mg/kg, route oral; details: in vivo
[35] = Bioavailability in cynomolgus monkey determined from 1 mg/kg, iv and 30 mg/kg, po by LC/MS/MS analysis; format: ADME, organism-based, Macaca fascicularis; details: in vivo
[36] = test system: Rattus norvegicus; test: Increase in S1P level in Sprague-Dawley rat jejunum at 30 mg/kg, po administered daily for 3 days measured after 18 hrs […] relative to untreated control; format: functional
[37] = test system: Canis familiaris; test: Cardiotoxicity in Beagle dog assessed as increase in heart rate at 500 mg/kg, po administered as single dose after 24 hrs by electrocardiogram analysis; format: toxicity, organism-based, Canis lupus familiaris; parameters: dose 500 mg/kg, route oral; details: in vivo
[38] = test system: Mus musculus; test: Antiarthritic activity in […] collagen-induced arthritic mouse assessed as decrease in circulating T cells at 100 mg/kg, po qd administered one day before collagen challenge; format: functional, T-cell; parameters: scale not given: the % may be the effect or the level left
[39] = test system: Mus musculus; test: Antiarthritic activity in […] collagen-induced arthritis in mouse assessed as decrease in clinical scores at 5 mg/kg, po administered qd on day 20 after collagen challenge by ELISA; format: functional, organism-based; parameters: dose 5 mg/kg
[40] = test system: Mus musculus; test: as §1; format: ADME, organism-based; details: mouse, in vivo
[41] = test system: Mus musculus; test: Effect on serum anti-CII antibody levels in type 2 collagen-induced arthritis in mouse at 30 mg/kg, po administered qd on day 20 after collagen challenge by ELISA; format: functional, organism-based; parameters: dose 30 mg/kg
[42] = test system: Mus musculus; test: Antiarthritic activity in […] collagen-induced arthritis in mouse assessed as decrease in joint swelling at 5 mg/kg, po administered qd on day 20 after collagen challenge by ELISA; format: functional, organism-based; parameters: dose 5 mg/kg
[43] = test system: Mus musculus; test: Antiarthritic activity in […] collagen-induced arthritis in mouse assessed as decrease in joint swelling at 30 mg/kg, po administered qd on day 20 after collagen challenge by ELISA; format: functional, organism-based; parameters: dose 30 mg/kg
[44] = test system: Mus musculus; test: as §2; format: ADME, organism-based, Plasma; parameters: time infinity, dose 10 mg/kg, route oral; details: mouse, in vivo
[45] = test system: Mus musculus; test: Antiarthritic activity in […] collagen-induced arthritis in mouse assessed as decrease in clinical scores at 30 mg/kg, po administered qd on day 20 after collagen challenge by ELISA; format: functional, organism-based; parameters: dose 30 mg/kg

C/C(=N\O)c1nc([C@@H](O)[C@H](O)[C@H](O)CO)c[nH]1.Cl
Tmax [1]: 2 h
Activity [2]: 50%
Vdss [3]: 0.3 L/kg
Activity [4]: -60%
bioavailability [5]: 6.8%
AUC(0-inf) [6]: 323 µM·h
Vdss [7]: 0.6 L/kg
Tmax [8]: 2 h
Cmax [9]: 3.6 µM
Tmax [10]: 2.3 h
AUC(0-inf) [11]: 70.1 µM·h
Cmax [12]: 79.5 µM
bioavailability [13]: 26%
Tmax [14]: 0.45 h
AUC(0-inf) [15]: 8.8 µM·h
Activity [16]: 40%
AUC(0-inf) [17]: 19 µM·h
fold change (FC) [18]: 24
bioavailability [19]: 32.1%
Vdss [20]: 0.5 L/kg
AUC(0-inf) [21]: 18.7 µM·h
clearance [22]: 3.5 mL/min/kg
Tmax [23]: 2 h
clearance [24]: 10.2 mL/min/kg
Cmax [25]: 3 µM
Activity [26]: Non-toxic
clearance [27]: 7.6 mL/min/kg
clearance [28]: 4.8 mL/min/kg
Cmax [29]: 2.7 µM
Activity [30]: Non-toxic
Cmax [31]: 16.9 µM
Vd [32]: 0.9 L/kg
fold change (FC) [33]: 80
half-life [34]: 1.6 h
bioavailability [35]: 16.4%
fold change (FC) [36]: 45
Activity [37]: Non-toxic
Activity [38]: 40%

Cl.OC[C@@H](O)[C@@H](O)[C@H](O)c1c[nH]c(-c2ccon2)n1
Activity [39]: Active
Activity [4]: -70%
F [40]: 2.4%
Activity [41]: inactive
Activity [42]: Active
Cmax [9]: 6.2 µM
Activity [43]: Active
Tmax [14]: 2.1 h
AUC [44]: 21 µM·h
Activity [45]: Active
Vd [32]: 0.54 L/kg
half-life [34]: 2.9 h
